Reference: patent US20230024096A1, “BIFUNCTIONAL COMPOUNDS FOR THE TREATMENT OF CANCER” (Hoffmann-La Roche Inc., priority 2019, published 2023)

Target: T1, SMARCA2 (Homo sapiens, UniProt P51531)
T1 construct: endogenous in cells; host or cells: HT1080 (CRISPR HiBiT knock-in clone, generated in house)
Test: SMARCA2 HiBiT degradation assay (cellular)
Assay type: cell-based
Settings: table head names A549; for DC50: 6 h incubation, HiBiT-tagged SMARCA2, luminescence read-out, read-out: HiBit A549 SMARCA2 IP (nM) 6 h; for Emax: A549, 6 h incubation, Emax = amount of residual protein remaining in the cell following compound treatment

T1 sequence (P51531 whole entry): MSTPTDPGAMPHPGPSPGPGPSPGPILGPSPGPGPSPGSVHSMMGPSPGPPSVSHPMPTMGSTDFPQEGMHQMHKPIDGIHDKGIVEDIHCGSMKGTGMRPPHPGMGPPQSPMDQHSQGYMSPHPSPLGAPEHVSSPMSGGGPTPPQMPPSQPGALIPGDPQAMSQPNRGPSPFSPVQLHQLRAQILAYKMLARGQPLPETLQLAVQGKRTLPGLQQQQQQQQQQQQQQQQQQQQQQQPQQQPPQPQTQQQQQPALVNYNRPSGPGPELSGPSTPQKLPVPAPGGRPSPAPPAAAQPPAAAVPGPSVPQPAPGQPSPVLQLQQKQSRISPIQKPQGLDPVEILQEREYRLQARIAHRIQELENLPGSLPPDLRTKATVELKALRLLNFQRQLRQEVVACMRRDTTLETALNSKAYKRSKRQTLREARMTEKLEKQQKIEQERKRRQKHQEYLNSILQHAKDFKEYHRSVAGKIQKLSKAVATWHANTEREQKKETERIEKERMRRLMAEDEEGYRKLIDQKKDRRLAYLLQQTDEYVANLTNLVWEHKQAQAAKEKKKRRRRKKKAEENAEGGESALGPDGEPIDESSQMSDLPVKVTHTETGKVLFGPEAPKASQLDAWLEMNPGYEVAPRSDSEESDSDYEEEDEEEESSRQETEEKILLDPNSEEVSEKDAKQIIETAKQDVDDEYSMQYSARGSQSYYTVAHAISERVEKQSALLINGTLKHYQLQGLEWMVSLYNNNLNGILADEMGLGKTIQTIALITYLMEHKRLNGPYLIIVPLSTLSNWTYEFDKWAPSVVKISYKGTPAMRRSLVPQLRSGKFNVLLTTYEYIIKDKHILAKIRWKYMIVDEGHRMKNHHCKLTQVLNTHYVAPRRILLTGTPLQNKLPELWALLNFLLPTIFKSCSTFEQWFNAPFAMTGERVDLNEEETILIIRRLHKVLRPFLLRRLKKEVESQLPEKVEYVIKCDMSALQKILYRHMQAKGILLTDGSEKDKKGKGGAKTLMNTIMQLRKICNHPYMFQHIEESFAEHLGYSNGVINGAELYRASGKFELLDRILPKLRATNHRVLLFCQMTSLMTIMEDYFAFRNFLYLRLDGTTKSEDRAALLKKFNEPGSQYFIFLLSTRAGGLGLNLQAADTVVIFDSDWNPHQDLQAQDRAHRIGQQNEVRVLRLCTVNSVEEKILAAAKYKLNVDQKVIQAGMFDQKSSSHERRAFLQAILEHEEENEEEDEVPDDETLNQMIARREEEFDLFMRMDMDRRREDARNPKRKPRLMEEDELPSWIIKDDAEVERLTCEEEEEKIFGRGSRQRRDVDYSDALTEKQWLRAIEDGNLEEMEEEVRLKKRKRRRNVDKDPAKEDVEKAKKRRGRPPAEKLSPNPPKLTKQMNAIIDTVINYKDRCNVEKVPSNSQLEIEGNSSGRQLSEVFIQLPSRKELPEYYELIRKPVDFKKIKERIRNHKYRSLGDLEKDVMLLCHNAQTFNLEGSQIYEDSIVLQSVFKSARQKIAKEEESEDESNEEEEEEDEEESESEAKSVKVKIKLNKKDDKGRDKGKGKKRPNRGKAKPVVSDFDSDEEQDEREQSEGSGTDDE

SMILES | DC50 [nM] | Emax [%]
Nc1nnc(-c2ccccc2O)cc1OC1CCCN(c2ccc(N3CCN(CCCCCCCCCc4ccc(CNc5cccc6c5C(=O)N(C5CCC(=O)NC5=O)C6=O)nc4)CC3)cc2)C1 (centres unmarked) [Example 136, 4-[[5-[9-[4-[4-[3-[3-amino-6-(2-hydroxyphenyl)pyridazin-4-yl]oxy-1-piperidyl]phenyl]piperazin-1-yl]nonyl]-2-pyridyl]methylamino]-2-(2,6-dioxo-3-piperidyl)isoindoline-1,3-dione] | 495 | 45
Nc1nnc(-c2ccccc2O)cc1N1CC2CCC(C1)N2c1cccc(OCCN2CCN(CCCC3CCN(c4ccc5c(c4)C(=O)N(C4CCC(=O)NC4=O)C5=O)CC3)CC2)c1 (racemic) [Example 143, rac-5-[4-[3-[4-[2-[3-[3-[3-amino-6-(2-hydroxyphenyl)pyridazin-4-yl]-3,8-diazabicyclo[3.2.1]octan-8-yl]phenoxy]ethyl]piperazin-1-yl]propyl]-1-piperidyl]-2-(2,6-dioxo-3-piperidyl)isoindoline-1,3-dione] | 2 | 8
Nc1nnc(-c2ccccc2O)cc1N1CCN(c2cccc(CN3CCN(C(=O)COc4ccc5c(c4)C(=O)N(C4CCC(=O)NC4=O)C5=O)CC3)c2)C2(CC2)C1 (centres unmarked) [Example 129, 5-(2-(4-(3-(7-(3-amino-6-(2-hydroxyphenyl)pyridazin-4-yl)-4,7-diazaspiro[2.5]octan-4-yl)benzyl)piperazin-1-yl)-2-oxoethoxy)-2-(2,6-dioxopiperidin-3-yl)isoindoline-1,3-dione] | 37 | 38
Nc1nnc(-c2ccccc2O)cc1N1CC2CCC(C1)N2c1cccc(OCCN2CCN(C(=O)N3CCC4(CC3)CCN(c3ccc5c(c3)C(=O)N(C3CCC(=O)NC3=O)C5=O)CC4)CC2)c1 (racemic) [Example 52, rac-5-[3-[4-[2-[3-[3-[3-amino-6-(2-hydroxyphenyl)pyridazin-4-yl]-3,8-diazabicyclo[3.2.1]octan-8-yl]phenoxy]ethyl]piperazine-1-carbonyl]-3,9-diazaspiro[5.5]undecan-9-yl]-2-(2,6-dioxo-3-piperidyl)isoindoline-1,3-dione] | 37 | 52
Nc1nnc(-c2ccccc2O)cc1N1CCC(C(=O)NCC2CCN(CC3CCN(c4ccc5c(c4)C(=O)N(C4CCC(=O)NC4=O)C5=O)CC3)CC2)(c2ccccc2)C1 (stereo not drawn) [Example 124, 1-[3-amino-6-(2-hydroxyphenyl)pyridazin-4-yl]-N-[[1-[[l-[2-(2,6-dioxo-3-piperidyl)-1,3-dioxo-isoindolin-5-yl]-4-piperidyl]methyl]-4-piperidyl]methyl]-3-phenyl-pyrrolidine-3-carboxamide] | 272 | 63
Nc1nnc(-c2ccccc2O)cc1N1CC2CCC(C1)N2c1cccc(CN2CCC(C(=O)N3CCN(c4ccc5c(c4)C(=O)N(C4CCC(=O)NC4=O)C5=O)CC3)CC2)c1 (racemic) [Example 95, rac-5-[4-[1-[[3-[3-[3-amino-6-(2-hydroxyphenyl)pyridazin-4-yl]-3,8-diazabicyclo[3.2.1]octan-8-yl]phenyl]methyl]piperidine-4-carbonyl]piperazin-1-yl]-2-(2,6-dioxo-3-piperidyl)isoindoline-1,3-dione] | 13 | 25
Nc1nnc(-c2ccccc2O)cc1N1CCC(C(=O)N2CCC(NC(=O)C3CCN(c4ccc5c(c4)C(=O)N(C4CCC(=O)NC4=O)C5=O)CC3)CC2)(c2ccccc2)CC1 (centres unmarked) [Example 119, N-(1-(1-(3-amino-6-(2-hydroxyphenyl)pyridazin-4-yl)-4-phenylpiperidine-4-carbonyl)piperidin-4-yl)-1-(2-(2,6-dioxopiperidin-3-yl)-1,3-dioxoisoindolin-5-yl)piperidine-4-carboxamide] | 35 | 50
